Laboratory results published in PubChem BioAssay AID2060504 (Molecular Pharmacology Branch, DTP, NCI, 2025).

System: 636577-100-R-J1-PDC complex spheroid viability
Assay: Anticancer human tumor 636577-100-R-J1-PDC patient-derived endometrial adenocarcinoma cell line growth inhibition [GQUAD]
Settings: for IC50: curve of first compound; for viability, T/C: stronger effect = lower value
Outline: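 Tumor cells were grown as complex spheroids with HUVEC endothelial cells and mesenchymal stem cells as stroma. G-quadruplex stabilizers were combined with targeted agents over half-log dilutions from near the clinical Cmax, or from 10 microM.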

[1] = second compound 0.0316 µM, first compound 0.000999 µM
[2] = second compound 0.0316 µM, first compound 0.00316 µM
[3] = second compound 0.0316 µM, first compound 0.00999 µM
[4] = second compound 0.0316 µM, first compound 0.0316 µM
[5] = second compound 0.0316 µM, first compound 0.0999 µM
[6] = second compound 0.0316 µM, first compound 0.316 µM
[7] = second compound 0.1 µM, first compound 0.000999 µM
[8] = second compound 0.1 µM, first compound 0.00316 µM
[9] = second compound 0.1 µM, first compound 0.00999 µM
[10] = second compound 0.1 µM, first compound 0.0316 µM
[11] = second compound 0.1 µM, first compound 0.0999 µM
[12] = second compound 0.1 µM, first compound 0.316 µM
[13] = second compound 0.316 µM, first compound 0.000999 µM
[14] = second compound 0.316 µM, first compound 0.00316 µM
[15] = second compound 0.316 µM, first compound 0.00999 µM
[16] = second compound 0.316 µM, first compound 0.0316 µM
[17] = second compound 0.316 µM, first compound 0.0999 µM
[18] = second compound 0.316 µM, first compound 0.316 µM
[19] = second compound 1 µM, first compound 0.000999 µM
[20] = second compound 1 µM, first compound 0.00316 µM
[21] = second compound 1 µM, first compound 0.00999 µM
[22] = second compound 1 µM, first compound 0.0316 µM
[23] = second compound 1 µM, first compound 0.0999 µM
[24] = second compound 1 µM, first compound 0.316 µM
[25] = second compound 3.16 µM, first compound 0.000999 µM
[26] = second compound 3.16 µM, first compound 0.00316 µM
[27] = second compound 3.16 µM, first compound 0.00999 µM
[28] = second compound 3.16 µM, first compound 0.0316 µM
[29] = second compound 3.16 µM, first compound 0.0999 µM
[30] = second compound 3.16 µM, first compound 0.316 µM
[31] = second compound 10 µM, first compound 0.000999 µM
[32] = second compound 10 µM, first compound 0.00316 µM
[33] = second compound 10 µM, first compound 0.00999 µM
[34] = second compound 10 µM, first compound 0.0316 µM
[35] = second compound 10 µM, first compound 0.0999 µM
[36] = second compound 10 µM, first compound 0.316 µM
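Note: viability read after seven days of drug exposure.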
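Throughout, for viability, T/C: luminescence signal used as a proxy for viable cells; 100% = DMSO vehicle control wells.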

## Cc1[nH]c2ccccc2c1CCNCc1ccc(/C=C/C(=O)NO)cc1 + CN(C)c1ccc(Nc2c3ccc(NC(=O)CCN4CCCC4)cc3nc3cc(NC(=O)CCN4CCCC4)ccc23)cc1
Second compound 0.0316 µM
  IC50: 3.84 nM
Second compound 0.1 µM
  IC50: 4.62 nM
Second compound 0.316 µM
  IC50: 4.84 nM
Second compound 1 µM
  IC50: 3.15 nM
Second compound 3.16 µM
  IC50: < 0.999 nM
Second compound 10 µM
  IC50: < 0.999 nM
[1]
  viability, T/C: 84%
[2]
  viability, T/C: 49.5%
[3]
  viability, T/C: 40.6%
[4]
  viability, T/C: 15.7%
[5]
  viability, T/C: 8.74%
[6]
  viability, T/C: 12.3%
[7]
  viability, T/C: 80.7%
[8]
  viability, T/C: 56.5%
[9]
  viability, T/C: 36.1%
[10]
  viability, T/C: 14.2%
[11]
  viability, T/C: 8.43%
[12]
  viability, T/C: 8.87%
[13]
  viability, T/C: 62.3%
[14]
  viability, T/C: 62.5%
[15]
  viability, T/C: 30.4%
[16]
  viability, T/C: 14%
[17]
  viability, T/C: 8.97%
[18]
  viability, T/C: 9.2%
[19]
  viability, T/C: 65.4%
[20]
  viability, T/C: 48.6%
[21]
  viability, T/C: 31.5%
[22]
  viability, T/C: 13.9%
[23]
  viability, T/C: 9.95%
[24]
  viability, T/C: 10.1%
[25]
  viability, T/C: 37.1%
[26]
  viability, T/C: 29.2%
[27]
  viability, T/C: 20.2%
[28]
  viability, T/C: 15.6%
[29]
  viability, T/C: 10.3%
[30]
  viability, T/C: 10.9%
[31]
  viability, T/C: 6.06%
[32]
  viability, T/C: 7.54%
[33]
  viability, T/C: 7.16%
[34]
  viability, T/C: 6.21%
[35]
  viability, T/C: 6.38%
[36]
  viability, T/C: 3.97%

## Cc1[nH]c2ccccc2c1CCNCc1ccc(/C=C/C(=O)NO)cc1 + Cc1[nH]c2ccc(F)cc2c1-c1nc2c3cccnc3c3ncccc3c2[nH]1
Second compound 0.0316 µM
  IC50: 3.82 nM
Second compound 0.1 µM
  IC50: 4.27 nM
Second compound 0.316 µM
  IC50: 2.57 nM
Second compound 1 µM
  IC50: 4.08 nM
Second compound 3.16 µM
  IC50: < 0.999 nM
Second compound 10 µM
  IC50: < 0.999 nM
[1]
  viability, T/C: 85.4%
[2]
  viability, T/C: 50.4%
[3]
  viability, T/C: 37.9%
[4]
  viability, T/C: 17.2%
[5]
  viability, T/C: 8.47%
[6]
  viability, T/C: 10.2%
[7]
  viability, T/C: 76.9%
[8]
  viability, T/C: 50.8%
[9]
  viability, T/C: 41.8%
[10]
  viability, T/C: 14.9%
[11]
  viability, T/C: 7.94%
[12]
  viability, T/C: 12.1%
[13]
  viability, T/C: 80.3%
[14]
  viability, T/C: 37.7%
[15]
  viability, T/C: 32.9%
[16]
  viability, T/C: 16.5%
[17]
  viability, T/C: 7.47%
[18]
  viability, T/C: 10.4%
[19]
  viability, T/C: 51.6%
[20]
  viability, T/C: 59.6%
[21]
  viability, T/C: 30.3%
[22]
  viability, T/C: 15.5%
[23]
  viability, T/C: 9.36%
[24]
  viability, T/C: 8.79%
[25]
  viability, T/C: 23.2%
[26]
  viability, T/C: 27.4%
[27]
  viability, T/C: 23.9%
[28]
  viability, T/C: 17.2%
[29]
  viability, T/C: 9.73%
[30]
  viability, T/C: 7.69%
[31]
  viability, T/C: 32.9%
[32]
  viability, T/C: 34%
[33]
  viability, T/C: 23.1%
[34]
  viability, T/C: 13.5%
[35]
  viability, T/C: 9.1%
[36]
  viability, T/C: 10.7%

## O=C(NO)c1cnc(N2CCN(S(=O)(=O)c3ccc4ccccc4c3)CC2)nc1 + CN(C)c1ccc(Nc2c3ccc(NC(=O)CCN4CCCC4)cc3nc3cc(NC(=O)CCN4CCCC4)ccc23)cc1
Second compound 0.0316 µM
  IC50: < 31.6 nM
Second compound 0.1 µM
  IC50: < 31.6 nM
Second compound 0.316 µM
  IC50: < 31.6 nM
Second compound 1 µM
  IC50: < 31.6 nM
Second compound 3.16 µM
  IC50: < 31.6 nM
Second compound 10 µM
  IC50: < 31.6 nM
[4]
  viability, T/C: 30.3%
Second compound 0.0316 µM, first compound 0.1 µM
  viability, T/C: 14.9%
[6]
  viability, T/C: 6.37%
Second compound 0.0316 µM, first compound 1 µM
  viability, T/C: 6.45%
Second compound 0.0316 µM, first compound 3.16 µM
  viability, T/C: 0.17%
Second compound 0.0316 µM, first compound 10 µM
  viability, T/C: 0.08%
[10]
  viability, T/C: 34.5%
Second compound 0.1 µM, first compound 0.1 µM
  viability, T/C: 15.9%
[12]
  viability, T/C: 6.15%
Second compound 0.1 µM, first compound 1 µM
  viability, T/C: 6.73%
Second compound 0.1 µM, first compound 3.16 µM
  viability, T/C: 0.15%
Second compound 0.1 µM, first compound 10 µM
  viability, T/C: 0.08%
[16]
  viability, T/C: 30.4%
Second compound 0.316 µM, first compound 0.1 µM
  viability, T/C: 18.8%
[18]
  viability, T/C: 6.26%
Second compound 0.316 µM, first compound 1 µM
  viability, T/C: 5.85%
Second compound 0.316 µM, first compound 3.16 µM
  viability, T/C: 0.15%
Second compound 0.316 µM, first compound 10 µM
  viability, T/C: 0.1%
[22]
  viability, T/C: 26.3%
Second compound 1 µM, first compound 0.1 µM
  viability, T/C: 15.7%
[24]
  viability, T/C: 7.08%
Second compound 1 µM, first compound 1 µM
  viability, T/C: 7.15%
Second compound 1 µM, first compound 3.16 µM
  viability, T/C: 0.24%
Second compound 1 µM, first compound 10 µM
  viability, T/C: 0.08%
[28]
  viability, T/C: 25.1%
Second compound 3.16 µM, first compound 0.1 µM
  viability, T/C: 15.6%
[30]
  viability, T/C: 8.28%
Second compound 3.16 µM, first compound 1 µM
  viability, T/C: 6.85%
Second compound 3.16 µM, first compound 3.16 µM
  viability, T/C: 0.21%
Second compound 3.16 µM, first compound 10 µM
  viability, T/C: 0.08%
[34]
  viability, T/C: 7.11%
Second compound 10 µM, first compound 0.1 µM
  viability, T/C: 4.48%
[36]
  viability, T/C: 5.08%
Second compound 10 µM, first compound 1 µM
  viability, T/C: 6.28%
Second compound 10 µM, first compound 3.16 µM
  viability, T/C: 0.12%
Second compound 10 µM, first compound 10 µM
  viability, T/C: 0.08%
